In patent publication US20060069132A1, “Azolecarboxamide herbicides” (priority 2004, published 2006):

Tests used:
morningglory = experiment: Test B pre-/postemergence herbicide test; assay type: in vivo, Ipomoea coccinea
In short: (§1)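 Response was scored visually 13 to 15 days after treatment against untreated greenhouse controls, 0 meaning no effect and 100 complete control. Formulations (solvent mixture plus surfactant) went onto soil after planting, onto foliage of 1- to 4-leaf plants, and onto 2-leaf plants in a flooded paddy set including rice and barnyardgrass.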

velvetleaf = experiment: Test B pre-/postemergence herbicide test; assay type: in vivo, Abutilon theophrasti
In short: (§2)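 Pre: seeds sown, then sprayed. Post: 1–4-leaf plants (2–18 cm) sprayed at the same time. Paddy: flooded, treated at 2-leaf stage. Formulation: non-phytotoxic solvent with surfactant. Greenhouse 13–15 days; visual 0–100 score relative to controls.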

wild oat = experiment: Test B postemergence herbicide test; assay type: in vivo, Avena fatua
In short: (§3)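 Plants grow to 1- to 4-leaf stage (2–18 cm) for postemergence spraying, or to 2-leaf stage for the paddy test. Formulated compound is applied. Greenhouse holding lasts 13–15 days. Response is scored visually relative to controls, 0 no effect to 100 complete control; a dash means no result.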

corn = experiment: Test B pre-/postemergence herbicide test; assay type: in vivo, Zea mays
In short: as §2

cocklebur = experiment: Test B pre-/postemergence herbicide test; assay type: in vivo, Xanthium strumarium
In short: as §1

pigweed = experiment: Test B pre-/postemergence herbicide test; assay type: in vivo, Amaranthus retroflexus
In short: as §2

barnyardgrass [1] = experiment: Test B pre-/postemergence herbicide test; assay type: in vivo, Echinochloa crus-galli
In short: as §1

large crabgrass = experiment: Test B pre-/postemergence herbicide test; assay type: in vivo, Digitaria sanguinalis
In short: as §2

lambsquarters = experiment: Test B pre-/postemergence herbicide test; assay type: in vivo, Chenopodium album
In short: as §2

Surinam grass = experiment: Test B pre-/postemergence herbicide test; assay type: in vivo, Urochloa decumbens
In short: as §2

giant foxtail = experiment: Test B pre-/postemergence herbicide test; assay type: in vivo, Setaria faberi
In short: as §2

rice = experiment: Test B flooded paddy test; assay type: in vivo, Oryza sativa; conditions: 1000 g ai/ha, scale 0 to 100 (0 no effect, 100 complete control)
In short: as §3

[2] = system: small flower umbrella sedge; experiment: Test B flooded paddy test; assay type: in vivo, Cyperus difformis; conditions: 1000 g ai/ha, scale 0 to 100 (0 no effect, 100 complete control)
In short: (§4)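 Visual control ratings, 0–100 versus untreated controls, taken after 13 to 15 days in the greenhouse. Blackgrass received a postemergence spray at the 1- to 4-leaf stage (2–18 cm); ducksalad, umbrella sedge and barnyardgrass were flooded-paddy treated at 2 leaves.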

wheat = experiment: Test B postemergence herbicide test; assay type: in vivo, Triticum aestivum; design: key to Wheat plant response rating: 0 = no effect, 100 = complete control; conditions: for Wheat plant response rating: postemergence
In short: as §3

barnyardgrass [3] = experiment: Test B flooded paddy test; assay type: in vivo, Echinochloa crus-galli; conditions: 1000 g ai/ha, scale 0 to 100 (0 no effect, 100 complete control)
In short: as §4

[4] = 125 g ai/ha, 0 = no effect, 100 = complete control, preemergence
[5] = 125 g ai/ha, visual rating, scale 0 (no effect) to 100 (complete control), postemergence
[6] = 500 g ai/ha, visual rating, 0 = no effect, 100 = complete control, preemergence
[7] = postemergence, 500 g ai/ha, scale 0 to 100, 0 is no effect, 100 is complete control
[8] = Postemergence, 125 g ai/ha, scale 0 (no effect) to 100 (complete control)
[9] = Postemergence, 500 g ai/ha, visual rating after 13 to 15 days, scale 0 (no effect) to 100 (complete control)
[10] = Preemergence, 500 g ai/ha, scale 0 to 100
[11] = preemergence, 125 g ai/ha, 0 to 100 scale, 0 is no effect, 100 is complete control

`CCOC(=O)c1cccc(NC(=O)c2cc(C(C)(C)C)nn2C)n1` [Compound 313] was tested, and the “Morningglory plant response rating (0 to 100 scale)” value (morningglory; [4]) was 10, the “Morningglory plant response rating” value (morningglory; [5]) was 0 and the “Plant response rating, Morningglory” value (morningglory; [6]) was 40. The “Morningglory plant response rating” value (morningglory; [7]) was 80, the “Velvetleaf plant response rating” value (velvetleaf; [5]) was 60 and the “Plant response rating, Velvetleaf” value (velvetleaf; [6]) was 100. The “Velvetleaf plant response rating” value (velvetleaf; [7]) was 70, the “Oat, Wild plant response rating” value (wild oat; [5]) was 20 and the “Oat, Wild plant response rating” value (wild oat; [7]) was 30. The “Corn plant response rating (0 to 100 scale)” value (corn; [4]) was 10, the “Corn plant response rating” value (corn; [5]) was 10 and the “Plant response rating, Corn” value (corn; [6]) was 30. For the same compound, the “Corn plant response rating” value (corn; [7]) was 20, the “Cocklebur plant response rating (0 to 100 scale)” value (cocklebur; [4]) was 0 and the “Cocklebur plant response rating” value (cocklebur; [5]) was 0. For the same compound, the “Plant response rating, Cocklebur” value (cocklebur; [6]) was 10, the “Cocklebur plant response rating” value (cocklebur; [7]) was 90 and the “Pigweed plant response rating (0 to 100 scale)” value (pigweed; [4]) was 100. The “Pigweed plant response rating” value (pigweed; [5]) was 60, the “Plant response rating, Pigweed” value (pigweed; [6]) was 100 and the “Pigweed plant response rating” value (pigweed; [7]) was 70. For the same compound, the “Barnyardgrass plant response rating (0 to 100 scale)” value (barnyardgrass [1]; [4]) was 80, the “Barnyardgrass plant response rating” value (barnyardgrass [1]; [5]) was 30 and the “Plant response rating, Barnyardgrass” value (barnyardgrass [1]; [6]) was 90. The “Barnyardgrass plant response rating” value (barnyardgrass [1]; [7]) was 50, the “Crabgrass, Large plant response rating (0 to 100 scale)” value (large crabgrass; [4]) was 30 and the “Crabgrass, Large plant response rating” value (large crabgrass; [5]) was 10. The “Plant response rating, Crabgrass, Large” value (large crabgrass; [6]) was 90, the “Crabgrass, Large plant response rating” value (large crabgrass; [7]) was 20 and the “Lambsquarters plant response rating (0 to 100 scale)” value (lambsquarters; [4]) was 100. For the same compound, the “Lambsquarters plant response rating” value (lambsquarters; [5]) was 60, the “Plant response rating, Lambsquarters” value (lambsquarters; [6]) was 100 and the “Lambsquarters plant response rating” value (lambsquarters; [7]) was 90. For the same compound, the “Surinam Grass plant response rating (0 to 100 scale)” value (Surinam grass; [4]) was 30, the “Surinam Grass plant response rating” value (Surinam grass; [5]) was 10 and the “Plant response rating, Surinam Grass” value (Surinam grass; [6]) was 80. For the same compound, the “Surinam Grass plant response rating” value (Surinam grass; [7]) was 20, the “Foxtail, Giant plant response rating (0 to 100 scale)” value (giant foxtail; [4]) was 40 and the “Foxtail, Giant plant response rating” value (giant foxtail; [5]) was 20. The “Plant response rating, Foxtail, Giant” value (giant foxtail; [6]) was 100, the “Foxtail, Giant plant response rating” value (giant foxtail; [7]) was 50 and the “Rice plant response rating” value (rice) was 80. The “Sedge, Umbrella plant response rating” value [2] was 80, the “Wheat plant response rating” value (wheat; 125 g ai/ha, visual rating, scale 0 (no effect) to 100 (complete control)) was 0 and the “Wheat plant response rating” value (wheat; 500 g ai/ha, scale 0 to 100, 0 is no effect, 100 is complete control) was 10. The “Barnyardgrass plant response rating” value (barnyardgrass [3]) was 70.

With `C=CCNC(=O)c1cccc(NC(=O)c2cc(C(C)(C)C)nn2CC)c1` [Compound 46] the “Morningglory plant response rating” value (morningglory; [8]) was 0, the “Plant response rating, Morningglory” value (morningglory; [9]) was 90 and the “Morningglory plant response rating” value (morningglory; [10]) was 20. The “Plant response rating, Morningglory” value (morningglory; [11]) was 10, the “Plant response rating, Velvetleaf” value (velvetleaf; [9]) was 80 and the “Velvetleaf plant response rating” value (velvetleaf; [10]) was 100. The “Plant response rating, Velvetleaf” value (velvetleaf; [11]) was 50, the “Oat, Wild plant response rating” value (wild oat; [8]) was 0 and the “Plant response rating, Oat, Wild” value (wild oat; [9]) was 10. For the same compound, the “Corn plant response rating” value (corn; [8]) was 20, the “Plant response rating, Corn” value (corn; [9]) was 30 and the “Corn plant response rating” value (corn; [10]) was 10. The “Cocklebur plant response rating” value (cocklebur; [8]) was 30, the “Plant response rating, Cocklebur” value (cocklebur; [9]) was 90 and the “Cocklebur plant response rating” value (cocklebur; [10]) was 30. For the same compound, the “Plant response rating, Pigweed” value (pigweed; [9]) was 90, the “Pigweed plant response rating” value (pigweed; [10]) was 100 and the “Plant response rating, Pigweed” value (pigweed; [11]) was 100. For the same compound, the “Barnyardgrass plant response rating” value (barnyardgrass [1]; [8]) was 10, the “Plant response rating, Barnyardgrass” value (barnyardgrass [1]; [9]) was 50 and the “Barnyardgrass plant response rating” value (barnyardgrass [1]; [10]) was 100. For the same compound, the “Crabgrass, Large plant response rating” value (large crabgrass; [8]) was 30, the “Plant response rating, Crabgrass, Large” value (large crabgrass; [9]) was 90 and the “Crabgrass, Large plant response rating” value (large crabgrass; [10]) was 100. For the same compound, the “Lambsquarters plant response rating” value (lambsquarters; [8]) was 80, the “Plant response rating, Lambsquarters” value (lambsquarters; [9]) was 90 and the “Lambsquarters plant response rating” value (lambsquarters; [10]) was 100. For the same compound, the “Plant response rating, Lambsquarters” value (lambsquarters; [11]) was 100, the “Plant response rating, Surinam Grass” value (Surinam grass; [9]) was 40 and the “Surinam Grass plant response rating” value (Surinam grass; [10]) was 70. For the same compound, the “Plant response rating, Surinam Grass” value (Surinam grass; [11]) was 20, the “Foxtail, Giant plant response rating” value (giant foxtail; [8]) was 30 and the “Plant response rating, Foxtail, Giant” value (giant foxtail; [9]) was 40. The “Foxtail, Giant plant response rating” value (giant foxtail; [10]) was 100, the “Plant response rating, Foxtail, Giant” value (giant foxtail; [11]) was 60 and the “Rice plant response rating” value (rice; visual rating, 13 to 15 days) was 70. For the same compound, the “Sedge, Umbrella plant response rating” value ([2]; visual rating, 13 to 15 days) was 80, the “Plant response rating, Wheat” value (wheat; [9]) was 30 and the “Barnyardgrass plant response rating” value (barnyardgrass [3]; visual rating, 13 to 15 days) was 90.
